Source: patent US20240316136A1, “ANESTHETIC METHOD OF SPOTTED SEABASS WITH PLANT ESSENTIAL OILS” (Shanghai Ocean University, priority 2024, published 2024)

What was measured:
Assay type in all cases: in vivo, Lateolabrax maculatus
[1] = system: spotted seabass; assay: Energy metabolism indexes (glucose, lactic acid); details: after anesthesia; comparison between anesthetic groups, P<0.05
Procedure: (§1) In accordance with the principles and guiding regulations established by the Animal Protection and Utilization Committee of Shanghai Ocean University (SHOU-DW-2022-059), 200 mg/L MS-222 was used to anesthetize fish. Venous-arterial blood samples were obtained from the caudal vein using a 1 mL syringe with 10% EDTA as an anticoagulant and then preserved in anticoagulation tubes. In addition, another portion of the blood was collected without anticoagulant, then kept at 4° C. for a duration of 12 hours for stationary. The coagulated blood was centrifuged at 4000×g for 20 min at 4° C. The serum was extracted and placed in the refrigerator at −40° C. for testing.
(§2) Acid phosphatase (ACP), glucose (GLU) and lactic acid (LD) kits (Nanjing Jiancheng Bioengineering Institute, Nanjing, China) were used to measure ACP, GLU and LD levels.

[2] = system: spotted seabass gill tissue; assay: Gill tissue histopathology by light microscope after anesthesia
Procedure: • 1. Healthy spotted seabass with uniform sizes and uniform respiration rates were selected and acclimated for 24 h. During the acclimatization period, the water temperature was 22±1° C., the salinity was 16%, the dissolved oxygen was 6 mg/L, pH was 7.5, and the fish-water ratio was 1:50. The metabolic wastes of the spotted seabass were discharged during acclimatization period. • 2. The emulsified Cinnamomum camphora essential oils were added to the aquariums respectively. The water temperature was controlled at 22±1° C. The concentrations of the emulsified Cinnamomum camphora essential oil were 10, 20, 30, 50, 100, 150, 200 mg/L, respectively, and the same concentrations of MS-222 anesthesia solution and linalool solution were prepared at the same time. • 3. The spotted seabass were transferred to aquariums (5 fish per aquarium) with different concentrations of the Cinnamomum camphora essential oil, MS-222 and linalool anesthetics, and anesthetic concentrations, sedation concentrations and duration of anesthesia were recorded for the spotted seabass. • 4. The fish were extracted once deep anesthesia was achieved. Recovery was defined as the restoration of fish to their typical swimming behavior; the resuscitation time of the spotted seabass were recorded. • 5. The optimal concentration range was obtained, and oxidative stress and tissue injury were measured. […]

[3] = system: spotted seabass; assay: Blood biochemical analysis (RBC, HCT, HGB)
Procedure: as §1
Red blood cell count (RBC), haematocrit (HCT), and hemoglobin (HGB) in blood samples were measured in a Myriad Veterinary Automatic Blood Cell Analyser (BC-2800vet, Shenzhen, China).

[4] = system: spotted seabass; assay: Sedation, anesthesia induction and resuscitation time of spotted seabass in anesthetic bath; parameters: key to Stage IV (deep anesthesia) time / Resuscitation time / Stage I (light sedation) time / Stage II (deep sedation) time / Stage III (light anesthesia) time: —: No anesthetic effect
Procedure: • 1. Healthy spotted seabass with uniform sizes and uniform respiration rates were selected and acclimated for 24 h. During the acclimatization period, the water temperature was 22±1° C., the salinity was 16%, the dissolved oxygen was 6 mg/L, pH was 7.5, and the fish-water ratio was 1:50. The metabolic wastes of the spotted seabass were discharged during acclimatization period. • 2. The emulsified Cinnamomum camphora essential oils were added to the aquariums respectively. The water temperature was controlled at 22±1° C. […] The spotted seabass were transferred to aquariums (5 fish per aquarium) with different concentrations of the Cinnamomum camphora essential oil, MS-222 and linalool anesthetics, and anesthetic concentrations, sedation concentrations and duration of anesthesia were recorded for the spotted seabass. • 4. The fish were extracted once deep anesthesia was achieved. Recovery was defined as the restoration of fish to their typical swimming behavior; the resuscitation time of the spotted seabass were recorded. • 5. The optimal concentration range was obtained, and oxidative stress and tissue injury were measured. [table] One-way analysis of variance (ANOVA) was used to evaluate the data (anesthetic induction and recovery time) using SPSS 26.0 software (SPSS Inc., Chicago, IL, USA). The significant variation was determined using Duncan's multiple range test (P<0.05). Graphs were created using Origin software.

[5] = system: spotted seabass; assay: Immunological indicators (ACP/AKP, IgM, LZM) in serum
Procedure: as §1, §2
Lysozyme (LZM) activity was determined by the method of De Souza et al. Serum immunoglobulin M (IgM) concentration was measured using a fish ELISA kit (Nanjing Jiancheng Bioengineering Institute, Nanjing, China).

[6] = system: spotted seabass; assay: Oxidative stress indicators (SOD, CAT, GSH-Px) in blood
Procedure: as §1
Superoxide Dismutase (SOD), Catalase (CAT) and Glutathione Peroxidase (GSH-Px) kits (Nanjing Jiancheng Bioengineering Institute, Nanjing, China) were used to determine SOD, CAT and GSH-Px activities in blood.

[7] = after 24 h of recovery, vs initial values, p<0.05
[8] = after 24 h of recovery, vs initial

Structure (SMILES): CCOC(=O)c1cccc(N)c1.CS(=O)(=O)O [MS-222, tricaine methanesulfonate]
- Glucose concentration [1]: Greater
- Gill tissue histopathological changes [2]: chloride cells underwent significant proliferation
- Percentage of hematocrit [3, 7]: lower
- Red blood cell count (RBC) [3, 7]: higher
- Percentage of hematocrit ([3]; after deep anesthesia, comparison between anesthetic groups, p<0.05): higher
- Hemoglobin concentration ([3]; in vivo): higher
- Red blood cell count (RBC) ([3]; in vivo): higher
- Resuscitation time ([4]; 5 mg/L in water): —
- Stage I (light sedation) time ([4]; 5 mg/L in water): —
- Stage II (deep sedation) time ([4]; 5 mg/L in water): —
- Stage III (light anesthesia) time ([4]; 5 mg/L in water): —
- Stage IV (deep anesthesia) time ([4]; 5 mg/L in water): —
- Resuscitation time ([4]; 10 mg/L in water): —
- Stage I (light sedation) time ([4]; 10 mg/L in water): 90.67 ± 2.08 s
- Stage II (deep sedation) time ([4]; 10 mg/L in water): —
- Stage III (light anesthesia) time ([4]; 10 mg/L in water): —
- Stage IV (deep anesthesia) time ([4]; 10 mg/L in water): —
- Resuscitation time ([4]; 20 mg/L in water): —
- Stage I (light sedation) time ([4]; 20 mg/L in water): 73.67 ± 5.86 s
- Stage II (deep sedation) time ([4]; 20 mg/L in water): 111.67 ± 2.08 s
- Stage III (light anesthesia) time ([4]; 20 mg/L in water): —
- Stage IV (deep anesthesia) time ([4]; 20 mg/L in water): —
- Resuscitation time ([4]; 30 mg/L in water): —
- Stage I (light sedation) time ([4]; 30 mg/L in water): 59.00 ± 3.00 s
- Stage II (deep sedation) time ([4]; 30 mg/L in water): 102.33 ± 2.52 s
- Stage III (light anesthesia) time ([4]; 30 mg/L in water): 122.67 ± 2.52 s
- Stage IV (deep anesthesia) time ([4]; 30 mg/L in water): —
- Resuscitation time ([4]; 50 mg/L in water): 217.00 ± 2.00 s
- Stage I (light sedation) time ([4]; 50 mg/L in water): 39.67 ± 2.52 s
- Stage II (deep sedation) time ([4]; 50 mg/L in water): 64.00 ± 3.61 s
- Stage III (light anesthesia) time ([4]; 50 mg/L in water): 83.00 ± 3.00 s
- Stage IV (deep anesthesia) time ([4]; 50 mg/L in water): 185.00 ± 4.36 s
- Resuscitation time ([4]; 100 mg/L in water): 240.00 ± 2.00 s
- Stage I (light sedation) time ([4]; 100 mg/L in water): 30.00 ± 3.00 s
- Stage II (deep sedation) time ([4]; 100 mg/L in water): 41.00 ± 4.58 s
- Stage III (light anesthesia) time ([4]; 100 mg/L in water): 70.67 ± 4.04 s
- Stage IV (deep anesthesia) time ([4]; 100 mg/L in water): 174.00 ± 4.58 s
- Resuscitation time ([4]; 150 mg/L in water): 290.33 ± 3.06 s
- Stage I (light sedation) time ([4]; 150 mg/L in water): 20.67 ± 2.52 s
- Stage II (deep sedation) time ([4]; 150 mg/L in water): 35.00 ± 2.00 s
- Stage III (light anesthesia) time ([4]; 150 mg/L in water): 63.00 ± 3.61 s
- Stage IV (deep anesthesia) time ([4]; 150 mg/L in water): 147.67 ± 2.52 s
- Resuscitation time ([4]; 200 mg/L in water): 349.33 ± 3.06 s
- Stage I (light sedation) time ([4]; 200 mg/L in water): 19.67 ± 2.52 s
- Stage II (deep sedation) time ([4]; 200 mg/L in water): 29.67 ± 2.52 s
- Stage III (light anesthesia) time ([4]; 200 mg/L in water): 55.33 ± 2.08 s
- Stage IV (deep anesthesia) time ([4]; 200 mg/L in water): 140.33 ± 2.08 s
- Optimal anesthetic concentration ([4]; criterion: induction in around 3 min and recovery within 5 min): 100 mg/L
- Concentration showing deep sedation ([4]; in vivo): 20 mg/L
- Concentration showing light anesthesia effect (Stage III) ([4]; in vivo): 30 mg/L
- Concentration showing light sedation effect (Stage I) ([4]; in vivo): 10 mg/L
- Minimum concentration required to achieve profound anesthesia (Stage IV) ([4]; in vivo, iv): 50 mg/L
- IgM concentration ([5]; after anesthesia): decreased
- LZM activity ([5]; after anesthesia, change from initial): decreased
- AKP activity ([5]; on exposure to anesthetic): increased
- CAT activity [6, 8]: recovered to the initial values
- SOD activity [6, 8]: recovered to the initial values
- SOD, CAT and GSH-Px activities ([6]; after anesthesia): increasing trend
